In patent US5583115A, “Dialkyltiacumicin compounds” (Abbott Laboratories, priority 1995, dated 1996) one finds MIC data, which are given here for one compound.

≈ marks a conversion by molar mass, not a printed value.

Assay [1] has as its system P. magnus. Put plainly: MIC agar dilution, anaerobic bacteria. Format: cell-based. Conditions: Culture # 1778. (In agar dilution, organisms are placed on agar that contains the substance at set levels.)
For assay [2], the system named is C. difficile. Put plainly: MIC agar dilution, anaerobic bacteria. In kind it is cell-based.
The subject of assay [3] is Clostridium perfringens. As to the kind of experiment: microbe, parasite or virus in culture. Format: cell-based.
Assay [4] concerns P. anaerobius. Put plainly: MIC agar dilution, anaerobic bacteria. In kind it is cell-based. Conditions: Culture # 1780.
Assay [5] concerns C. ramosum. As to the kind of experiment: MIC agar dilution, anaerobic bacteria. Format: cell-based. The following applies: Culture # 2482.
Assay [6] has as its system Pseudomonas aeruginosa. As to the kind of experiment: MIC agar dilution, aerobic and facultative bacteria.

For the compound `CCc1c(Cl)c(OC)c(Cl)c(OC)c1C(=O)OC1C(C)OC(OCC2=CC=CCC(O)C(C)=CC(CC)C(OC3OC(C)(C)C(OC(=O)C(C)C)C(O)C3O)C(C)=CC(C)=CCC(C(C)O)OC2=O)C(OC)C1O` (stereo not shown) [Example 2, 3"', 5"'-Di-O-methyltiacumicin B], the MIC was more than 2 µg/mL in assay [1]; 0.25 µg/mL (≈ 0.23 µM) in assay [2] (Culture # 1496); 0.5 µg/mL (≈ 0.46 µM) in assay [2] (Culture # 1497); 0.25 µg/mL (≈ 0.23 µM) in assay [2] (Culture # 1774); 0.5 µg/mL (≈ 0.46 µM) in assay [2] (Culture # 2025); 0.25 µg/mL (≈ 0.23 µM) in assay [2] (Culture # 2480). The MIC was 0.5 µg/mL (≈ 0.46 µM) in assay [2] (Culture # 2528); 0.5 µg/mL (≈ 0.46 µM) in assay [2] (Culture # 2529); 0.06 µg/mL (≈ 0.0552 µM) in assay [3] (Culture # 1771); 0.06 µg/mL (≈ 0.0552 µM) in assay [3] (Culture # 1772); 0.06 µg/mL (≈ 0.0552 µM) in assay [3] (Culture # 1773); more than 2 µg/mL in assay [4]. Further, the MIC in assay [5] was more than 2 µg/mL; in assay [6] (Culture # 1679) it was more than 100 µg/mL; in assay [6] (Culture # 1680), more than 100 µg/mL; in assay [6] (Culture # 1681), more than 100 µg/mL; in assay [6] (Culture # 1682) it was 100 µg/mL (≈ 92.1 µM); in assay [6] (cipro R, Culture # 1919), more than 100 µg/mL. In assay [6] (cipro R, Culture # 1920), this compound gave an MIC of more than 100 µg/mL.
